Source: article PMC11130262, “Ebselen analogues delay disease onset and its course in fALS by on-target SOD-1 engagement” (Scientific Reports, 2024)
Like-named read-outs stand apart in the source and are kept apart here.

How the values were obtained:
[1] = test system: Neuro2a cells with SOD1^G93A expression; experiment: Proteostasis immunoblotting in cultured Neuro2a cells expressing G93A SOD1; assay type: cell-based, mouse; details: 10 µM, 24 h; for poly-ubiquitinated proteins: Fig. 6J
Method: Neuro2a cells were seeded on 6 well plate (#140685 Corning Costar) at 5.0 × 10^4/well, and transfected with human wild-type or G93A SOD1 expressing plasmid[25] using Lipofectamine 2000 (Thermo Fisher Scientific) according to the manufacturer’s instructions.

[2] = test system: H4 cells expressing wild-type SOD1; experiment: ATP bioluminescent (CellTiter-Glo) cell viability assay, H4 cells expressing wild-type SOD1; details: wild-type SOD1, dose-response 2.5 to 100 μM, Supplementary Fig. S1
Method: Human H4 neuroglioma cells (HTB-148, ATCC) and mouse Neuro2a neuroblastoma cells (CCL-131, ATCC) were cultured in Dulbecco’s modified Eagle’s medium (DMEM) (Gibco) supplemented with 10%v/v Foetal Bovine Serum (FBS) at 37 °C under humidified atmosphere with 5% CO2. Transfection of the Venus-BiFC SOD1 plasmids to H4 cells was carried out using Turbofect™ transfection agent (#R0533, Thermo Fisher Scientific) following protocols from the manufacture. Briefly, 1.5 × 10^5 H4 cells suspended in 1 mL medium were seeded on a well of 4 compartment-glass bottom dish (Cellview™, Greiner Bio-one) and grown at 37 °C for 24 h. 0.25 µg Venus-BiFC plasmids of wild-type or A4V SOD1 homodimer comprised of equimolar concentrations of VN-SOD1 and SOD1-VC were mixed with 1 µL Turbofect in 0.1 mL FBS-free DMEM and incubated at room temperature for 15 min before adding to seeded H4 cells. […] To determine cell viability, 2.5 × 10^4 cells were seeded in 0.2 mL media in a 96-well plate (Corning Costar, #10695951, Thermo Fisher Scientific). Cell viability was measured either using MTS assay (CellTiter 96, #G3580, Promega) on a plate-reader spectrometer (SpectraMax Plus 384, Molecular Devices) or using CellTiter-GloR 2.0 Assay (#G9241, Promega) following the manufacturer’s protocol. […] BMG POLARstar Omega microplate reader was used for luminescence measurement. […]

[3] = test system: H4 cells expressing A4V SOD1; experiment: ATP bioluminescent (CellTiter-Glo) cell viability assay, H4 cells expressing A4V SOD1; assay type: cell-based, human; details: for cell survival: 10 and 25 μM, 24 h, individual drugs
Method: (§1) Human H4 neuroglioma cells (HTB-148, ATCC) and mouse Neuro2a neuroblastoma cells (CCL-131, ATCC) were cultured in Dulbecco’s modified Eagle’s medium (DMEM) (Gibco) supplemented with 10%v/v Foetal Bovine Serum (FBS) at 37 °C under humidified atmosphere with 5% CO2. Transfection of the Venus-BiFC SOD1 plasmids to H4 cells was carried out using Turbofect™ transfection agent (#R0533, Thermo Fisher Scientific) following protocols from the manufacture. Briefly, 1.5 × 10^5 H4 cells suspended in 1 mL medium were seeded on a well of 4 compartment-glass bottom dish (Cellview™, Greiner Bio-one) and grown at 37 °C for 24 h. 0.25 µg Venus-BiFC plasmids of wild-type or A4V SOD1 homodimer comprised of equimolar concentrations of VN-SOD1 and SOD1-VC were mixed with 1 µL Turbofect in 0.1 mL FBS-free DMEM and incubated at room temperature for 15 min before adding to seeded H4 cells. […] To determine cell viability, 2.5 × 10^4 cells were seeded in 0.2 mL media in a 96-well plate (Corning Costar, #10695951, Thermo Fisher Scientific). Cell viability was measured either using MTS assay (CellTiter 96, #G3580, Promega) on a plate-reader spectrometer (SpectraMax Plus 384, Molecular Devices) or using CellTiter-GloR 2.0 Assay (#G9241, Promega) following the manufacturer’s protocol. […] BMG POLARstar Omega microplate reader was used for luminescence measurement. To avoid the interference of the antioxidant compounds (ebselen and its analogues) with the luciferase activity in the presence of oxygen, the drugs containing media was replaced with a fresh medium prior to the addition of the reagent.

[4] = test system: H4 cells expressing G93A SOD1; experiment: ATP bioluminescent (CellTiter-Glo) cell viability assay, H4 cells expressing G93A SOD1; assay type: cell-based, human; details: for cell survival: 10 and 25 μM, 24 h, individual drugs; for concentration up to which high level of cells viability is seen: dose-response 2.5 to 100 μM
H46R SOD1 = target: T1, H46R SOD1 (Homo sapiens, UniProt P00441, H47R); experiment: Bimolecular fluorescence complementation (BiFC) assay of SOD1 aggregation, H46R; assay type: cell-based; details: 50 µM
T1 construct: expressed in transfected cells; host or cells: human H4 neuroglioma cells (HTB-148, ATCC)
T1 sequence (P00441 whole entry H47R): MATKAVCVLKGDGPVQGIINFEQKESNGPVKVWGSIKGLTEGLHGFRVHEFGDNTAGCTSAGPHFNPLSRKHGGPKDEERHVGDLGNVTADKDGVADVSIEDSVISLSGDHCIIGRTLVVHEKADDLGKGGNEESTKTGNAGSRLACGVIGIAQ
T1 sequence (P00441 2-154 H47R limits assumed): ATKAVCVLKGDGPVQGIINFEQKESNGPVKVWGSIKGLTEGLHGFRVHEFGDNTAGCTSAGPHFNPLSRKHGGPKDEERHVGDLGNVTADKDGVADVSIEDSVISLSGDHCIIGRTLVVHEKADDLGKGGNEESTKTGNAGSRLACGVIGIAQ
Method: (§2) Human H4 neuroglioma cells cultured in glass-bottom dishes were transfected with Venus fragments as described above using Turbofect transfection reagent. Transfected H4 cells were stained with 5 µM DRAQ5 nuclear stain (ab108410, Abcam) and incubated at 37 °C for 5 min prior to cell imaging. Live cell imaging was performed on cells maintained in a humidified incubator (37 °C, 5% CO2) using a Zeiss LSM 710 microscope. To obtain large field of view for analysis, images were collected using a 4 × 4 tiles with a 20 × Fluar 0.8 NA (Carl Zeiss, Jena, Germany) at 1024 × 1024 pixels. Excitation of Venus fluorescent protein (VFP) was carried out with 514-nm argon laser while DRAQ5 was excited at 633 nm with a HeNe laser. Emitted light was collected through appropriate filters to eliminate any spill-overs. Image acquisition and processing were carried out using ZEN 2.1 software (Carl Zeiss, Jena Germany).
Following the drug treatment (24 h) of transfected cells and nuclear staining with DRAQ5 for 5 min the tiled images were generated as described above. […] Fiji software[52] was used to determine minimum and maximum diameter of cells and inclusions within the cells in pixel units. […]

D90A SOD1 = target: T2, D90A SOD1 (Homo sapiens, UniProt P00441, D91A); experiment: Bimolecular fluorescence complementation (BiFC) assay of SOD1 aggregation, D90A; assay type: cell-based; details: for reduction of aggregates / aggregation propensity: D90A, 50 µM
T2 construct: expressed in transfected cells; host or cells: human H4 neuroglioma cells (HTB-148, ATCC)
T2 sequence (P00441 whole entry D91A): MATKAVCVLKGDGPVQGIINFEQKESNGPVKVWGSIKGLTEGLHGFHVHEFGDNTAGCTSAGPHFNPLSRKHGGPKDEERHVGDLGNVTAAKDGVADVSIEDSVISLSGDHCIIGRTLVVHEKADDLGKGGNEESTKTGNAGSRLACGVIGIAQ
T2 sequence (P00441 2-154 D91A limits assumed): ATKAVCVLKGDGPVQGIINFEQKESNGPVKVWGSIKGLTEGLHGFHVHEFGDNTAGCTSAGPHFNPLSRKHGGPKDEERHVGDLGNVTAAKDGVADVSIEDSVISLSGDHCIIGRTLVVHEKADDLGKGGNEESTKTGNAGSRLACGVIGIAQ
Method: as §2
Following the drug treatment (24 h) of transfected cells and nuclear staining with DRAQ5 for 5 min the tiled images were generated as described above. […] Fiji software[52] was used to determine minimum and maximum diameter of cells and inclusions within the cells in pixel units. These cell/inclusion sizes were then used to set parameters in Cell Profiler[53]. The pipeline was adapted from the Speckle Counter example available from CellProfiler (https://cellprofiler.org/) for the batch analysis of the cells with or without inclusions. The low fluorescent cells missed by the cell profiler were adjusted by manual counting.

[5] = test system: SOD1^G93A transgenic mice; experiment: Survival and behavioral experiments of SOD1G93A transgenic mice, chronic oral administration; assay type: in vivo, mouse; details: for disease onset (mean ± SD): female SOD1G93A mice, 0.016% w/w in powder food (estimated dose 24 mg/kg) from 70 days of age, controls 104.4 ± 8.7 (MR6-8-2) and 106.4 ± 9.0 (MR6-26-2)
Method: Transgenic mice expressing human SOD1^G93A with C57BL/6 background (B6.Cg‐Tg(SOD1*G93A)1Gur/J) (RRID: IMSR_JAX:004435) were prepared for in vivo experiments using our published protocol with determination of the times for disease onset and end-stage were previously[25],[61]. […] The diet was replenished three times per week, and the mice had free access to their assigned diet and deionized water. The body weight of the mice and clasping signs were measured every week. Disease onset was determined by the time when the mice reached maximum body weight. The clasping signs were scored as 0 (no sign), 1 (one hindlimb partially retracted), 2 (both hindlimb partially retracted), or 3 (hindlimbs were entirely retracted), as described elsewhere[62],[63]. Rotarod tests were performed every two weeks, as previously described[61],[62]. Briefly, the mice were placed on the rotating rods, which accelerated from 0 to 30 rpm for 5 min with 15 min interval between each trial. The longest latencies to fall from the rotating rods out of three trials were scored. All behavioral experiments were conducted under non-blinded conditions. The mice were housed in the specific pathogen-free (SPF) environment (with a 12 h light‐dark cycle at 23 ± 1 °C and 50 ± 5% humidity) and treated in compliance with the requirements of the Animal Care and Use Committee, Nagoya University. The experiments using genetically modified mice were approved by the Animal Care and Use Committee and the recombinant DNA experiment committee of Nagoya University. All methods used for transgenic mice experiments were in accordance with relevant guidelines and regulations and all methods are reported in accordance with ARRIVE guideline.

[6] = test system: mouse neuronal N2a cells expressing G93A SOD1; design: method as in PMID 32862101; details: N2a cells expressing G93A SOD1, shown again in Fig. 1B; cited from earlier work
A4V SOD1 = A4V SOD1 (Homo sapiens, UniProt P00441, A5V)
Sequence of A4V SOD1 (P00441 whole entry A5V): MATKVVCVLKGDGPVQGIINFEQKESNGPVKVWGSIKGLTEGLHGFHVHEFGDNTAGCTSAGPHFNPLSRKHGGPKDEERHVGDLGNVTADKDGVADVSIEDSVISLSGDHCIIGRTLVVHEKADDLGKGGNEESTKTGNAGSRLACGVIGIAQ
Sequence of A4V SOD1 (P00441 2-154 A5V limits assumed): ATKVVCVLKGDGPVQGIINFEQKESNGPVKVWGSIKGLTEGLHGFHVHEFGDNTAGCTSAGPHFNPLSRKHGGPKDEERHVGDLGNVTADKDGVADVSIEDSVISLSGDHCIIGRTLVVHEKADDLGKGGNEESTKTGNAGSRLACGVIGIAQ
Method: as §1

G93A SOD1 = target: T3, G93A SOD1 (Homo sapiens, UniProt P00441, G94A); experiment: Bimolecular fluorescence complementation (BiFC) assay of SOD1 aggregation, G93A; assay type: cell-based
T3 construct: expressed in transfected cells; host or cells: human H4 neuroglioma cells (HTB-148, ATCC)
T3 sequence (P00441 whole entry G94A): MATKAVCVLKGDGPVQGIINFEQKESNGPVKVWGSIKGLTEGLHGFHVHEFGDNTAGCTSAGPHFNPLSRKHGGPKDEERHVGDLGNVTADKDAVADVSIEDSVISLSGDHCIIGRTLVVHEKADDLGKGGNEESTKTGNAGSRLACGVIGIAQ
T3 sequence (P00441 2-154 G94A limits assumed): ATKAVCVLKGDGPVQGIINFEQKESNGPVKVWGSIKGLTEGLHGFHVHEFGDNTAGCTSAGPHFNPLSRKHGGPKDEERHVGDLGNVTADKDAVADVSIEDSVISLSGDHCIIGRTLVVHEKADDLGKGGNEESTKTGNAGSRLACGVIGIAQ
Method: Human H4 neuroglioma cells cultured in glass-bottom dishes were transfected with Venus fragments as described above using Turbofect transfection reagent. Transfected H4 cells were stained with 5 µM DRAQ5 nuclear stain (ab108410, Abcam) and incubated at 37 °C for 5 min prior to cell imaging. Live cell imaging was performed on cells maintained in a humidified incubator (37 °C, 5% CO2) using a Zeiss LSM 710 microscope. […]

[7] = test system: spinal cords of SOD1^G93A mice; assay type: in vivo, mouse
Method: Immunoblotting and immunofluorescence analyses were performed as described previously. For the analysis of SOD1 oligomers with aberrant disulfide bonds (SOD1 S–S oligomers), sodium dodecyl sulfate–polyacrylamide gel electrophoresis was performed under non-reducing conditions. […] (Medimabs, Montreal, Quebec, Canada) was used at a 1:250 dilution. Other primary antibodies used for the study were anti-β-actin (1:5,000, #A5441, RRID: AB_476744, Sigma-Aldrich), anti-p62 (1:1,000 for immunoblotting, 1:500 for immunohistochemistry, #PM045, RRID: AB_2169714, Medical and Biological Laboratories (MBL), Nagoya, Japan), anti-polyubiquitin (1:1,000 for immunoblotting, 1:500 for immunohistochemistry, #D058‐3, RRID: AB_592937, MBL), and anti-choline acetyltransferase (ChAT) ((1:100 for immunohistochemistry, #AB144P, RRID:AB_2079751, EMD Millipore Corp., Billerica, MA, USA). Rabbit anti-human SOD1 antibody was raised in our laboratory against a recombinant human SOD1 peptide (aa 24–37) and purified with protein A[66].

[8] = Oral bioavailability and pharmacokinetic study in mice; assay type: in vivo, female CD1 mice
Method: The analysis is based on free measurable amounts of free drug in the plasma and thus is likely to be an underestimation of active drug compound due to the extensive serum albumin binding seen with drugs in this class.
F = (AUCINF-PO/mean AUCINF-IV)/(DosePO/DoseIV) × 100%, AUClast was alternatively used for F calculation when AUCINF was not available or beyond 120% of AUClast. The compound were formulated in 5%DMAC + 95% (20% HP-beta-CD in saline) at 0.2 mg/mL for IV dosing and CMC (0.5%), benzyl alcohol (0.5%), Tween 80 (0.4%) and NaCl (0.9%) at 3 mg/mL for PO dosing, respectively. PK parameters were estimated by non-compartmental model using WinNonlin 8.2.

[9] = test system: SOD1^G93A transgenic mice; design: method as in PMID 32862101; details: cited from earlier work
[10] = female, CD1, mouse, in vivo, iv, 1 mg/kg
[11] = female, CD1, mouse, in vivo, po, 30 mg/kg

## Nc1nc2ccc(OC(F)(F)F)cc2s1 [riluzole]
[1]
  effect on proteostasis: no effect on proteostasis

## O=c1c2ccccc2[se]n1Cc1cccnc1 [MR6-8-2]
[2]
  concentrations giving a sharp fall of viable cells (toxicity): above 25 µM
[3]
  cell survival: increased the cell survival
[4]
  cell survival: increased the cell survival
H46R SOD1
  reduction of aggregates / aggregation propensity: least effective
D90A SOD1
  reduction of aggregates / aggregation propensity: least effective
[5]
  disease onset (mean ± SD): 115.5 ± 9.2 days
[6]
  dosage restoring wild-type level viability, lower than edaravone: 100 -fold

## COc1ccc(Cn2[se]c3ccccc3c2=O)cn1 [MR6-26-2]
[3]
  cell survival: increased the cell survival
[3]; dose-response 2.5 to 100 μM
  concentration up to which high level of cells viability is seen: up to 25 µM
[3]; dose-response 2.5 to 100 μM, Supplementary Fig. S1
  concentration reviving the cells to maximum level: 12.5 µM
[4]
  cell survival: increased the cell survival
  concentration up to which high level of cells viability is seen: up to 25 µM
A4V SOD1; A4V SOD1, 50 µM, 24 h, 75% in untreated cells
  cells displaying more than 5 inclusions per cell: 29%
A4V SOD1; A4V, 50 µM
  reduction of aggregates / aggregation propensity: most effective in reducing the aggregates
A4V SOD1; A4V, doses 25, 50 and 100 µM, Fig. 3A
  drug concentration found to reduce the aggregates effectively: 50 µM
G93A SOD1; G93A SOD1, 50 µM, 24 h
  cells with more than 5 inclusions per cell: no cells were detected
G93A SOD1; G93A, 50 µM
  reduction of aggregates / aggregation propensity: most effective in reducing the aggregates
H46R SOD1
  reduction of aggregates / aggregation propensity: most effective in reducing the aggregates
D90A SOD1; D90A SOD1, 50 µM, 24 h
  cells with more than 5 inclusions per cell: no cells were detected
D90A SOD1
  reduction of aggregates / aggregation propensity: most effective in reducing the aggregates
[5]; SOD1G93A mice, Fig. 5C
  clasping scores: improvement
[5]; SOD1G93A mice, chronic oral
  survival time: did not show a significant extension
[5]; SOD1G93A mice, oral
  slowing of disease onset: approximately 15 days
[5]; Supplementary Fig. S4
  body weights: unaffected
  rotarod performance: unaffected
[5]
  disease onset (mean ± SD): 121.1 ± 7.2 days
[7]; 120-days-old SOD1G93A lumbar spinal cord
  p62- and poly-ubiquitin-doubly positive inclusions in motor neurons: substantially reduced
[7]; SOD1G93A mice, 120 days old, non-reducing SDS-PAGE
  SOD1 oligomers with aberrant disulfide bonds in spinal cords: sharply decreased
[7]; early symptomatic SOD1G93A mice
  misfolded SOD1 (C4F6 antibody) in lumbar spinal cord: reduced the accumulation of misfolded SOD1
[7]; early symptomatic SOD1G93A mice, Fig. 5J
  motor neuron degeneration (ChAT-positive motor neurons): without affecting the motor neuron degeneration
[7]; immunoblotting, insoluble fractions, 120 days old
  level of poly-ubiquitinated proteins in spinal cords: decreased
[7]; mouse, in vivo
  insoluble SOD1 proteins in spinal cords: sharply decreased
[1]
  poly-ubiquitinated proteins: reduced
[8]; [10]
  AUC(0-inf): 203 ng·h/mL
  AUC(0-t): 197 ng·h/mL
  MRT inf: 0.267 h
  Vd: 1.37 L/kg
  clearance: 85.7 mL/min/kg
[8]; [11]
  AUC(0-inf): 1790 ng·h/mL
  AUC(0-t): 1730 ng·h/mL
  CL: 4.17 mL/min/kg
  MRTINF: 29.5 h
  bioavailability: 29%
  half-life: 1.5 h
[8]; female, CD1, mouse, plasma, IV dose at 1 mg/kg, mean, read-out: T1/2 (converted)
  half-life: 0.347 h
[8]; female, CD1, mouse, plasma, oral dose of 30 mg/kg, mean, read-out: T1/2 (converted)
  half-life: 1.35 h
[8]; mouse, in vivo
  clearance: fast clearance
[6]
  dosage restoring wild-type level viability, lower than edaravone: 100 -fold

## CC1=NN(c2ccccc2)C(=O)C1 [edaravone]
[3]
  cell survival: increased the cell survival
[4]
  cell survival: increased the cell survival
[1]; Fig. 6I
  insoluble SOD1 species: tendency to reduce insoluble SOD1
[1]
  poly-ubiquitinated proteins: little effect
[1]; Fig. 6K
  insoluble p62: little effect

## O=c1c2ccccc2[se]n1-c1ccccc1 [ebselen, 2-phenyl-1,2-benzisoselenazol-3(2H)-one]
[3]
  cell survival: increased the cell survival
[3]; dose-response 2.5 to 100 μM
  concentration up to which high level of cells viability is seen: up to 25 µM
[4]
  cell survival: increased the cell survival
  concentration up to which high level of cells viability is seen: up to 25 µM
H46R SOD1
  reduction of aggregates / aggregation propensity: least effective
D90A SOD1
  reduction of aggregates / aggregation propensity: least effective
[9]
  neuroprotection in SOD1G93A mice by delaying disease onset: partial neuroprotection
